From patent US6451334B2, “Compositions and administration of compositions for the treatment of blood disorders” (priority 1997, dated 2002)
Values joined by “and” are separate entries in the source; they are usually repeats but may differ in a detail not shown here. Equal entries are not always repeated. Where two headings read alike, the source gives them in different places. Each block holds one molecule with its values, some of them ahead of it.

What was measured:
bone marrow cells = conditions: continuous intravenous administration; cited from earlier work
in vivo = conditions: monkey, po
Protocol: (§1) Chronic indwelling venous and arterial catheters which were maintained using sterile technique for blood sampling. Compounds were administered by nasogastric tube and blood was collected to determine drug plasma levels at regular intervals following single oral doses. […] The test compounds were analyzed after ether extraction of the plasma, separation by HPLC, and quantitated by comparison to a spilled internal standard of heptanoic acid according to previously described methods.

anemic baboon = assay: Hematopoietic stimulation in an anemic phlebotomized baboon; assay type: in vivo; conditions: administered for five days, baboon phlebotomized 5% of blood volume daily, FIG. 13
Protocol: An increase in multiple blood cell lineages resulted when a prototype hemokine compound (α methylhydrocinnamic acid) was administered for five days to an anemic baboon, which was being phlebotomized 5% of its blood volume daily.

[1] = test system: mice transgenic for a human beta globin locus YAC containing a silenced gamma globin gene; assay: In vivo experiments in mice transgenic for the human beta globin gene locus
Protocol: Three prototype compounds, methylhydrocinnamic acid (MHCA), phenoxyacetic acid (PAA), and dimethylbutyric acid PMB), were administered at doses from 100 to 250 mg/kg in two daily doses by intraperitoneal injection to mice transgenic for a human beta globin locus YAC containing a silenced gamma globin gene. Reticulocytes, newly synthesized red blood cells, were counted daily and non-alpha globin in MRNA was analyzed by Rnase protection. Only 50 microliters of blood were removed daily for testing. A 5 to 10-fold increase in reticulocytes and a 1.7-2.4 fold increase in gamma globin mRNA was observed within one week of therapy with the three protype compounds. In contrast, control mice to which normal saline was administered, with the same degree of phlebotomy for testing, had no significant changes in reticulocytes or globin in mRNA.

[2] = test system: system A transport of amino acids; assay: System A transport of amino acids; assay type: cell-based
Description: Normal cell viability, the viability of an untransformed or uninfected cell, can be determined from analyzing the effects of the composition on one or more biological processes of the cell. Detrimental interference with one or more of these cellular processes becomes significant when the process becomes abnormal. Examples of quantitatable and qualifiable biological processes include the processes of cell division, protein synthesis, nucleic acid (DNA or RNA) synthesis, nucleic acid (principally DNA) fragmentation and apoptosis. Others processes include specific enzyme activities, the activities of the cellular transportation systems such as the transportation of amino acids by system A (neutral), system B (acidic) or system C (basic), and the expression of a cell surface protein. […] Abnormal cell division, for example, can be mitosis which occurs too rapidly, as in a malignancy, or unstably, resulting in programmed cell death or apoptosis, detected by increased DNA degradation. The determination of abnormal cell viability can be made on comparison with untreated control cells. Compositions preferably increase normal cell viability. Increased cell viability can be determined by those of ordinary skill in the art using, for example, DNA fragmentation analysis. […]

K562 cells = assay: Treatment of K562 cells and analysis of globin mRNA by primer extension; assay type: cell-based, human; conditions: for fold induction at 1000 µM: Homo sapiens, K562, 72 h, read-out: increase in γ-globin mRNA over constitutive levels in untreated control K562 cells; for stimulating γ globin compared to control cells (ranking in words) / Radioactivity Alpha Globin (α) mRNA / Radioactivity Fetal Globin (γ) mRNA / γ/α: K562 cells; for Radioactivity Alpha Globin (α) mRNA / Radioactivity Fetal Globin (γ) mRNA: phosphorimager; for γ/α: ratio of globin mRNA radioactivity
Protocol: K562 cells kindly provided by Dr. George Atweh were cultured with 10% fetal bovine serum (Sigma, St. Louis, Mo.) and RPMI media (Grand Island Biological Company, Grand Island, N.Y.) in a humidified atmosphere with 5% CO2/95% air. Compounds were tested at a final concentration of 1 mM at neutral pH and included butyric acid, phenoxyacetic acid, dimethylbutric acid, alpha-methylhydrocionamic acid, 2,3, and 4-methoxyhydrocinnamic acid, dihydrocinnamic acid, methoxycinnamic acid, methoxyacetic acid, phenylpropionic acid, amino hydrocinnamic acid, DL β- and DL-βamino-n-butyric acid, cinnamic acid, and 2 methylhydrocinnamic acid (Aldrich Chemical Company, St. Louis, Mo.). Additional compounds studied included dimethylhydroxy acetic acid, dimethylpropionic acid, dimethylphenoxyacetic acid, and dimethylmethoxyacetic acid. After three days of culture with these agents, mRNA was purified and α, β, and γ globin mRNA was analyzed by primer extension using oligonucleotide primers and quantitation on a PhosphoImager as previously described.

[3] = test system: Mononuclear cells from patients with sickle cell disease or thalassemia trait; assay: Erythroid colony (BFU-E) cultures in methylcellulose; assay type: cell-based, human; conditions: 0.2-0.5 mM, optimal growth factors
Protocol: Mononuclear cells from patients with sickle cell disease or thalassemia trait were isolated on Ficoll Hypague, washed, and cultured in methylcellulose media with optimal concentrations of hematopoietic growth factors IL-3, GM-CSF, Stem Cell Factor, IL6, 3 U/ml Eiythropoietin, insulin, bovine serum albumin, and 0.2-0.5 mM concentrations of test compounds of derivatives of cinnamic acid and hydrocinnamic acid. […] The following illustrates some representative cultures: […]

32D cells = assay: Proliferation studies using 32D cells at low IL-3; assay type: cell-based, murine; conditions: 32D cells, low IL-3 (0.5 U/ml), FIG. 7
Protocol: 32D cells were cultured in RPMI media with 10% fetal bovine serum (Sigma, St. Louis, Mo.), […] glutamine (GIBCO), and murine IL3 (20 U/ml) (Biosource International). Growth factor controls used included the standard concentration of IL-3 required for proliferation of these cells (25 U/ml) and a 50-fold lower concentration (0.5 U/ml), and erythropoietin (3 U/ml) or G-CSF ( U/ml), (Amgen, Thousand Oaks, Calif.). The test compounds were added at final concentrations of 1 mM. As a cell density of 2.5−10×10^5 is necessary for growth of this cell line, this density was maintained by passing the cells at three day intervals or by concentrating the cells when apoptosis occurred. Proportions of cells which were viable or apoptotic, and the fraction of cells in each part of the cell cycle was assessed by incubating the cells with Trypan blue and enumeration, and with propidium iodide incubation and FACScan analysis as previously described.
The effects of the representative compounds which have been synthesized or selected for resistance to beta oxidative metabolism and glucuronidation in stimulating γ globin gene expression in a human erythroid-like cell line and for their effects on cell growth utilizing a multi-lineage murine hematopoietic cell line, 32D. This cell line is dependent on high concentrations of IL-3 for growth. […]

[4] = Pharmacokinetics after single oral doses in human volunteers; assay type: in vivo; conditions: FIG. 4, in humans, oral doses of 40-500 mg/kg
Protocol: as §1

[5] = Pharmacokinetic studies after single oral doses in baboons; conditions: monkey, plasma
Protocol: as §1

thalassemic patients = assay: Pulsed arginine butyrate infusion in thalassemic disorders; assay type: in vivo; conditions: 4 days with infusions about 8 hours per day, then 7 days of no treatment
Protocol: Individual pulses can be delivered to the patient continuously over a period of several hours, such as about 2, 4, 6, 8, 10, 12, 14 or 16 hours, or several days, such as 2, 3, 4, 5, 6, or 7 days, preferably from about 1 hour to about 24 hours and more preferably from about 3 hours to about 9 hours. Alternatively, periodic doses can be administered in a single bolus or a small number of injections of the composition over a short period of time, typically less than 1 or 2 hours. […] Substantially means that there are positive consequences that raise the patient's standard of living such as, for example, increased activity or mobility, fewer side-effects, fewer hospital stays or visits to the physician, or fewer transfusions.
Compositions administered in pulses have the surprising benefit of reducing the overall load of drug on the patient as the total amount of drug administered can be substantially less than that amount that has been therapeutically administered by conventional continuous therapy. […] Preferably, the therapeutically effective pulsed dose is less than the continuous dose, or less than one half, one third, one quarter, one fifth, one tenth or even one twentieth of the therapeutic continuous dose of the same composition or even less.

[6] = In vivo half-life of the composition
Protocol: The interval between pulses or the interval of no delivery is greater than 24 hours and preferably greater than 48 hours, and can be for even longer such as for 3, 4, 5, 6, 7, 8, 9 or 10 days, two, three or four weeks or even longer. As the results achieved may be surprising, the interval between pulses, when necessary, can be determined by one of ordinary skill in the art. Often, the interval between pulses can be calculated by administering another dose of the composition when the composition or the active component of the composition is no longer detectable in the patient prior to delivery of the next pulse. Intervals can also be calculated from the in vivo half-life of the composition. Intervals may be calculated as greater than the in vivo half-life, or 2, 3, 4, 5 and even 10 times greater the composition half-life.

[7] = 100 to 250 mg/kg in two daily doses, intraperitoneal, listed as DMB

Molecule: Nc1ncn([C@@H]2O[C@H](CO)[C@@H](O)[C@H]2O)c(=O)n1 [AZA, 5-azacytidine]
increase in γ globin mRNA of bone marrow cells (bone marrow cells): five- to seven

Molecule: CC(Cc1ccccc1)C(=O)O (stereo not drawn) [ST 7, α-methylhydrocinnamic acid]
half-life (in vivo): 7.6 h
blood cell lineages (anemic baboon): increase in both white blood cells and total hemoglobin
Reticulocytes Peak ([1]; 100 to 250 mg/kg in two daily doses, intraperitoneal, listed as MHCA): 17.9 and 23.3
Reticulocytes Day 0 ([1]; baseline of the treated animal, listed as MHCA): 2.9 and 2.3
system A transport of amino acids [2]: do not significantly alter
fold induction at 1000 µM (K562 cells): 2.4 to 26
stimulating γ globin compared to control cells (ranking in words) (K562 cells; 1 mM): most active
Radioactivity Alpha Globin (α) mRNA (K562 cells; 1 mM): 92979
Radioactivity Fetal Globin (γ) mRNA (K562 cells; 1 mM): 1648056
γ/α (K562 cells; 1 mM): 17.7
Mean BFU-E/culture 4 cultures averaged (per 0.2 million cells) [3]: 223
% Increase over control ([3]; BFU-E): 32.4%
increase in proliferation over 4 days (32D cells): 5 fold

time for which plasma levels persisted in the millimolar range [4]: greater than 6 hours
half-life [5]: 6.8 h
Molecule: CCC(C)(C)C(=O)O [ST 20, 2,2 dimethylbutyric acid]
Reticulocytes Peak [1, 7]: 17.7 and 21.3
γ/γ + β mRNA Peak [1, 7]: 0.36 and 0.31
γ/γ + β mRNA Day 0 ([1]; baseline of the treated animal, RNase protection, listed as DMB): 0.20 and 0.17
Reticulocytes Day 0 ([1]; baseline of the treated animal, listed as DMB): 2.4 and 4.2
fold induction at 1000 µM (K562 cells; primer extension, 1 mM, three days of culture, FIG. 1): 2.4 to 26
stimulating γ globin compared to control cells (ranking in words) (K562 cells; 1 mM): most active
Radioactivity Alpha Globin (α) mRNA (K562 cells; 1 mM): 178751
Radioactivity Fetal Globin (γ) mRNA (K562 cells; 1 mM): 1697936
γ/α (K562 cells; 1 mM): 9.5

Molecule: arginine butyrate [reference compound]
Fetal hemoglobin levels (thalassemic patients): rise substantially
half-life [6]: 0.25 h
Radioactivity Alpha Globin (α) mRNA (K562 cells; 1 mM): 296132
Radioactivity Fetal Globin (γ) mRNA (K562 cells; 1 mM): 2176523
γ/α (K562 cells; 1 mM): 7.3
